Results: publication PMC10609608, “Design, Synthesis, In Vitro Biological Evaluation and In Silico Molecular Docking Study of Benzimidazole-Based Oxazole Analogues: A Promising Acetylcholinesterase and Butyrylcholinesterase Inhibitors” (Molecules, 2023)

What was measured:
[1] = molecular target: acetylcholinesterase (AChE) (Homo sapiens, UniProt P22303); assay: biochemical; settings: in vitro; donepezil as standard; read-out: AChE IC50 ± SEM
Description: (§1) According to previously established protocols, in vitro AChE and BuChE inhibition profiles were evaluated with slight modifications.

[2] = molecular target: butyrylcholinesterase (BuChE) (Homo sapiens, UniProt P06276); assay: biochemical; settings: in vitro; donepezil as standard; read-out: BuChE IC50 ± SEM
Sequence of butyrylcholinesterase (BuChE) (P06276 29-602): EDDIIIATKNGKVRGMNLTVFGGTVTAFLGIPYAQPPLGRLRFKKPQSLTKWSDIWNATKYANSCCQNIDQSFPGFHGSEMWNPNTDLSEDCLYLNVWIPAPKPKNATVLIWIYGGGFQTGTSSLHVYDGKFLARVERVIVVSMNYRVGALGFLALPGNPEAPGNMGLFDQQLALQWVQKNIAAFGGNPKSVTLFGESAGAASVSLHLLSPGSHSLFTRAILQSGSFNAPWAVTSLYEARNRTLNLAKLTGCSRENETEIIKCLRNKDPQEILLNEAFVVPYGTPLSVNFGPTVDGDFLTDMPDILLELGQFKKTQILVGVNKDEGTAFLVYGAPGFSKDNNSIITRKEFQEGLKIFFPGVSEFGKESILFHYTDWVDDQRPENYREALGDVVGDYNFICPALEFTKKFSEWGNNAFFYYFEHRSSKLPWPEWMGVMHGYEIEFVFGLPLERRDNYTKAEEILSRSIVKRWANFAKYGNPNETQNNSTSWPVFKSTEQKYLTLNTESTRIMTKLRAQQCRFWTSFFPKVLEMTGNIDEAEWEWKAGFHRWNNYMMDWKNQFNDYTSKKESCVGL
Description: as §1

Sequence of acetylcholinesterase (AChE) (P22303 32-614): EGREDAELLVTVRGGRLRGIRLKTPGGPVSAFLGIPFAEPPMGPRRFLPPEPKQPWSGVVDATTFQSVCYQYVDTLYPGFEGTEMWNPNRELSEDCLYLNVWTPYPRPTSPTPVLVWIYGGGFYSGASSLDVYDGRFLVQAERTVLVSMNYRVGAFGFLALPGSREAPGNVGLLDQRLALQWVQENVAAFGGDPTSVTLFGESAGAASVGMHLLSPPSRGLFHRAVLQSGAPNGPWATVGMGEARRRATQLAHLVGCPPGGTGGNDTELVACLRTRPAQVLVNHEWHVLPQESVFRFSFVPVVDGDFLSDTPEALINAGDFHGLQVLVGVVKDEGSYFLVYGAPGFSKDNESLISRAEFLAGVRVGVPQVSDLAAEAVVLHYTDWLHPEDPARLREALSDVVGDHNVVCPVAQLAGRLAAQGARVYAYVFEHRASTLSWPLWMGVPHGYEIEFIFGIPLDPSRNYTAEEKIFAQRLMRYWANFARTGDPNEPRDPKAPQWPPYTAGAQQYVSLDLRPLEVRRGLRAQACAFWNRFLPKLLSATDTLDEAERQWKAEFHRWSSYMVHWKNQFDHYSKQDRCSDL

SMILES	IC50 [1] [µM]	IC50 [2] [µM]
Cc1ccc(-c2coc(N/N=C(/CSc3nc4ccccc4[nH]3)c3ccc(-c4ccccc4)cc3)n2)cc1 [Compound 16, (E)-2-(2-(2-((1H-Benzo[d]imidazol-2-yl)thio)-1-([1,1′-biphenyl]-4-yl)ethylidene) Hydrazinyl)-4-(p-tolyl)oxazole]	6.1 ± 0.1	9.3 ± 0.1
Cc1ccc(/C(CSc2nc3ccccc3[nH]2)=N\Nc2nc(-c3ccc(Cl)c(Cl)c3)co2)cc1 [Compound 6, (E)-2-(2-(2-((1H-Benzo[d]imidazol-2-yl)thio)-1-(p-tolyl)ethylidene)hydrazinyl)-4-(3,4-dichlorophenyl)oxazole]	0.4 ± 0.05	1.1 ± 0.05
O=[N+]([O-])c1cccc(-c2coc(N/N=C(/CSc3nc4ccccc4[nH]3)c3ccc(Cl)cc3)n2)c1 [Compound 11, (E)-2-(2-(2-((1H-Benzo[d]imidazol-2-yl)thio)-1-(4-chlorophenyl)ethylidene)hydrazi-nyl)-4-(3-nitrophenyl)oxazole]	0.7 ± 0.05	1.2 ± 0.01
COc1ccc(/C(CSc2nc3ccccc3[nH]2)=N\Nc2nc(-c3ccccc3[N+](=O)[O-])co2)cc1 [Compound 1, (E)-2-(2-(2-((1H-Benzo[d]imidazol-2-yl)thio)-1-(4-methoxyphenyl)ethylidene)hydrazinyl)-4-(2-nitrophenyl)oxazole]	1.1 ± 0.1	1.8 ± 0.1
Cc1ccc(/C(CSc2nc3ccccc3[nH]2)=N\Nc2nc(-c3cccc([N+](=O)[O-])c3)co2)cc1 [Compound 3, (E)-2-(2-(2-((1H-Benzo[d]imidazol-2-yl)thio)-1-(p-tolyl)ethylidene)hydrazinyl)-4-(3-nitrophenyl)oxazole]	4.4 ± 0.1	5.8 ± 0.1
O=[N+]([O-])c1cccc(-c2coc(N/N=C(/CSc3nc4ccccc4[nH]3)c3ccccc3)n2)c1 [Compound 10, (E)-2-(2-(2-((1H-Benzo[d]imidazol-2-yl)thio)-1-phenylethylidene)hydrazinyl)-4-(3-nitrophenyl)oxazole]	1.4 ± 0.1	2.1 ± 0.1
O=[N+]([O-])c1ccccc1-c1coc(N/N=C(/CSc2nc3ccccc3[nH]2)c2ccc(Cl)cc2)n1 [Compound 18, (E)-2-(2-(2-((1H-Benzo[d]imidazol-2-yl)thio)-1-(4-chlorophenyl)ethylidene)hydrazinyl)-4-(2-nitrophenyl)oxazole]	0.8 ± 0.1	1.7 ± 0.1
COc1cccc(-c2coc(N/N=C(/CSc3nc4ccccc4[nH]3)c3ccc(Cl)cc3)n2)c1 [Compound 19, (E)-2-(2-(2-((1H-Benzo[d]imidazol-2-yl)thio)-1-(4-chlorophenyl)ethylidene)hydrazinyl)-4-(3-methoxyphenyl)oxazole]	2.7 ± 0.2	3.7 ± 0.1
COc1ccccc1-c1coc(N/N=C(/CSc2nc3ccccc3[nH]2)c2ccc(C)cc2)n1 [Compound 8, (E)-2-(2-(2-((1H-Benzo[d]imidazol-2-yl)thio)-1-(p-tolyl)ethylidene)hydrazinyl)-4-(2-methoxyphenyl)oxazole]	5.3 ± 0.2	7.2 ± 0.1
COc1cccc(-c2coc(N/N=C(/CSc3nc4ccccc4[nH]3)c3ccccc3)n2)c1 [Compound 15, (E)-2-(2-(2-((1H-Benzo[d]imidazol-2-yl)thio)-1-phenylethylidene)hydrazinyl)-4-(3-methoxyphenyl)oxazole]	5.4 ± 0.1	7.2 ± 0.1
CN(C)c1ccc(/C(CSc2nc3ccccc3[nH]2)=N\Nc2nc(-c3ccc(Br)cc3)co2)cc1 [Compound 7, (E)-4-(2-((1H-Benzo[d]imidazol-2-yl)thio)-1-(2-(4-(4-bromophenyl)oxazol-2-yl)hydrazono)ethyl)-N,N-dimethylaniline]	12.6 ± 0.3	16.3 ± 0.3
Cc1ccc(/C(CSc2nc3ccccc3[nH]2)=N\Nc2nc(-c3ccc(C)cc3)co2)cc1 [Compound 4, (E)-2-(2-(2-((1H-Benzo[d]imidazol-2-yl)thio)-1-(p-tolyl)ethylidene)hydrazinyl)-4-(p-tolyl)oxazole]	6.5 ± 0.2	8.3 ± 0.2
Cc1ccc(/C(CSc2nc3ccccc3[nH]2)=N\Nc2nc(-c3ccccc3[N+](=O)[O-])co2)cc1 [Compound 2, (E)-2-(2-(2-((1H-Benzo[d]imidazol-2-yl)thio)-1-(p-tolyl)ethylidene)hydrazinyl)-4-(2-nitrophenyl)oxazole]	1.6 ± 0.01	1.9 ± 0.1
O=[N+]([O-])c1ccccc1-c1coc(N/N=C(/CSc2nc3ccccc3[nH]2)c2ccccc2)n1 [Compound 17, (E)-2-(2-(2-((1H-Benzo[d]imidazol-2-yl)thio)-1-phenylethylidene)hydrazinyl)-4-(2-nitrophenyl)oxazole]	2.5 ± 0.1	3.5 ± 0.1
Cc1ccc(/C(CSc2nc3ccccc3[nH]2)=N\Nc2nc(-c3ccccc3)co2)cc1 [Compound 13, (E)-2-(2-(2-((1H-Benzo[d]imidazol-2-yl)thio)-1-(p-tolyl)ethylidene)hydrazinyl)-4-phenyloxazole]	8.1 ± 0.1	9.7 ± 0.1
COc1cccc(-c2coc(N/N=C(/CSc3nc4ccccc4[nH]3)c3ccc(C)cc3)n2)c1 [Compound 5, (E)-2-(2-(2-((1H-Benzo[d]imidazol-2-yl)thio)-1-(p-tolyl)ethylidene)hydrazinyl)-4-(3-methoxyphenyl)oxazole]	9.8 ± 0.2	11.5 ± 0.2
Cc1ccc(/C(CSc2nc3ccccc3[nH]2)=N\Nc2nc(-c3ccc(Cl)cc3Cl)co2)cc1 [Compound 14, (E)-2-(2-(2-((1H-Benzo[d]imidazol-2-yl)thio)-1-(p-tolyl)ethylidene)hydrazinyl)-4-(2,4-dichlorophenyl)oxazole]	0.2 ± 0.05	0.3 ± 0.05
